Literature values in patent US4690936A (priority 1980, dated 1987).
Non-standard residues stand in square brackets, D forms with d. Residues, ends and D or L forms follow the SMILES beside them. No end group written: not given here. pGlu = O=C1CC[C@@H](C(=O)O)N1

System: ACE
Details: competitive substrate rather than true inhibitor

Compound	type of ACE interaction (lower Km than angiotensin I)
C[C@H](NC(=O)[C@H](Cc1c[nH]c2ccccc12)NC(=O)[C@H](CCCCN)NC(=O)[C@@H]1CCC(=O)N1)C(=O)N1CCC[C@H]1C(=O)O [BPP5a, <GluLysTrpAlaPro] ([pGlu]KWAP-OH)	competitive substrates
RPPGFSPFR [bradykinin]	competitive substrates
